Measurements taken from patent publication US20130018062A1, “Pain therapy with metabolism blocked antifolates” (priority 2011, published 2013).

How the values were obtained:
[1] = system: patients with Rheumatoid Arthritis; assay: Morning stiffness and swollen joints in patients with Rheumatoid Arthritis treated with M-Trex (Example-6); type: in vivo, human
Source text: MS (Morning Stiffness); S. Joints (Swollen Joints) were remarkably responsive to M-Trex therapy. Stiffness exacerbates Pain especially in joints by virtue of inflexibility and reduction is blood circulation. Swelling of joints is secondary to inflammation caused by autoimmune response in patients with Rheumatoid Arthritis. […] The initial numbers represents the values at the start of the study before the treatment and the remaining four numbers are values determined during each visit while taking M-Trex medication.
In joints stiffness (duration measured in minutes as above) is caused by inflammation of the synovium that lines the joint. Inflammation due to bone spurs as in Oesteo-arthritis causes Pain. Thus reduction of stiffness reduces the severity of inflammation and Pain. Abnormal tissue growth characterized by benign and malignant neoplasms cause stiffness due to compression of tissues, interfering with blood flow and irritation of the autonomic nervous system. Metabolism blocked antifolates are shown to be capable of decompression of tissues by interfering with tissue growth as shown in Examples 4, 5 and 6. These examples establish that metabolism blocked antifolates can decompress cancer tissues and ameliorate cancer pain.

HCT 29 (Colon Cancer) = assay: Growth inhibition of human tumor cells in culture (NCI); type: cell-based
Source text: (§1) The preceding data collected at the National Cancer Institute summarize the ability of M-Trex to inhibit 50% of the growth of selected tumor cells in culture. The values are expressed as Log10 GI50 values all of which are lower than 10^−8M. In the same table a comparison is made of the respective values of TGI (Total Growth Inhibition) for M-Trex and MTX. […] In addition, the Log10 GI50 values of M-Trex was lower than −8.00 for the following cell lines: NSCLC, A549/ATCC and NCI H23; Colon Cancer, HCT 116, HCT 29 and SW 620; CNS Cancer, SF 268; Melanoma M 14 and UACC 62; Ovarian Cancer, OVCAR-8; Renal Cancer, ACHN, CAKI-1, SN 12C, and UO 31; Prostate Cancer, PC 3 and Breast cancer, MDA-MB-435 and MDA-N. The MG_MID value of MTX for all 49 human tumor cell lines evaluated at NCI-DTP program was −7.05. […] The tumors and sarcomas are solid while leukemia and lymphoma are liquid tumors.

PC 3 (Prostate Cancer) = assay: as above; type: cell-based
Source text: as §1

SW 620 (Colon Cancer) = assay: as above; type: cell-based
Source text: as §1

OVCAR-8 (Ovarian Cancer) = assay: as above; type: cell-based
Source text: as §1

MOLT-4 (Leukemia) = assay: as above; type: cell-based; details: logarithmic value
Source text: as §1

RPMI 8226 (Leukemia) = assay: as above; type: cell-based; details: logarithmic value
Source text: as §1

CCRF-CEM (Leukemia) = assay: as above; type: cell-based
Source text: as §1

CAKI-1 (Renal Cancer) = assay: as above; type: cell-based
Source text: as §1

NCI H23 (NSCLC) = assay: as above; type: cell-based
Source text: as §1

[2] = system: MDA-MB-435 (Breast cancer); assay: as above; type: cell-based
Source text: as §1

ACHN (Renal Cancer) = assay: as above; type: cell-based
Source text: as §1

SF 268 (CNS Cancer) = assay: as above; type: cell-based
Source text: as §1

K562 (Leukemia) = assay: as above; type: cell-based; details: logarithmic value
Source text: as §1

MDA-N (Breast cancer) = assay: as above; type: cell-based
Source text: as §1

SR (Leukemia) = assay: as above; type: cell-based; details: logarithmic value
Source text: as §1

UO 31 (Renal Cancer) = assay: as above; type: cell-based
Source text: as §1

SN 12C (Renal Cancer) = assay: as above; type: cell-based
Source text: as §1

MCF-7 (Breast Cancer) = assay: as above; type: cell-based; details: logarithmic value
Source text: as §1

HCT 116 (Colon Cancer) = assay: as above; type: cell-based
Source text: as §1

A549/ATCC (NSCLC) = assay: as above; type: cell-based
Source text: as §1

M 14 (Melanoma) = assay: as above; type: cell-based
Source text: as §1

UACC 62 (Melanoma) = assay: as above; type: cell-based
Source text: as §1

SF 539 (CNS Cancer) = assay: as above; type: cell-based; details: logarithmic value
Source text: as §1

[3] = system: MCF7-ADR-RES (Breast Cancer); assay: as above; type: cell-based
Source text: as §1

[4] = first visit while taking M-Trex
[5] = fourth visit while taking M-Trex
[6] = second visit while taking M-Trex
[7] = start of the study before the treatment
[8] = third visit while taking M-Trex

C=C(CC(NC(=O)c1ccc(CCc2ccc3nc(N)nc(N)c3c2)cc1)C(=O)O)C(=O)O (stereo not drawn) [M-Trex, 4′-methylene-5,8-10-trideazaaminopterin]
MS (Morning Stiffness), duration [1, 4]: 26′ minutes | S. Joints (number of Swollen Joints) [1, 4]: 5.6 | MS (Morning Stiffness), duration [1, 5]: 14′ minutes | S. Joints (number of Swollen Joints) [1, 5]: 2.9 | MS (Morning Stiffness), duration [1, 6]: 22′ minutes | S. Joints (number of Swollen Joints) [1, 6]: 3.5 | MS (Morning Stiffness), duration [1, 7]: 99′ minutes | S. Joints (number of Swollen Joints) [1, 7]: 12.5 | MS (Morning Stiffness), duration [1, 8]: 20′ minutes | S. Joints (number of Swollen Joints) [1, 8]: 3.0 | Log10 GI50 (HCT 29 (Colon Cancer)): lower than −8.00 | Log10 GI50 (PC 3 (Prostate Cancer)): lower than −8.00 | Log10 GI50 (SW 620 (Colon Cancer)): lower than −8.00 | Log10 GI50 (OVCAR-8 (Ovarian Cancer)): lower than −8.00 | TGI (Total Growth Inhibition) (MOLT-4 (Leukemia)): −7.40 | TGI (Total Growth Inhibition) (RPMI 8226 (Leukemia)): −7.44 | TGI (Total Growth Inhibition) (CCRF-CEM (Leukemia); logarithmic value): <−8.00 | Log10 GI50 (CCRF-CEM (Leukemia); value is Log10 of GI50): <−8.00 M | Log10 GI50 (CAKI-1 (Renal Cancer)): lower than −8.00 | Log10 GI50 (NCI H23 (NSCLC)): lower than −8.00 | Log10 GI50 [2]: lower than −8.00 | Log10 GI50 (ACHN (Renal Cancer)): lower than −8.00 | Log10 GI50 (SF 268 (CNS Cancer)): lower than −8.00 | TGI (Total Growth Inhibition) (K562 (Leukemia)): <−8.00 | Log10 GI50 (MDA-N (Breast cancer)): lower than −8.00 | TGI (Total Growth Inhibition) (SR (Leukemia)): <−8.00 | Log10 GI50 (UO 31 (Renal Cancer)): lower than −8.00 | Log10 GI50 (SN 12C (Renal Cancer)): lower than −8.00 | TGI (Total Growth Inhibition) (MCF-7 (Breast Cancer)): −6.32 | Log10 GI50 (HCT 116 (Colon Cancer)): lower than −8.00 | Log10 GI50 (A549/ATCC (NSCLC)): lower than −8.00 | Log10 GI50 (M 14 (Melanoma)): lower than −8.00 | Log10 GI50 (UACC 62 (Melanoma)): lower than −8.00 | TGI (Total Growth Inhibition) (SF 539 (CNS Cancer)): −6.3 | TGI (Total Growth Inhibition) ([3]; logarithmic value): −7.26 | Log10 GI50 ([3]; value is Log10 of GI50): <−8.00 M
